Experimental data taken from PubChem BioAssay (NCI).
Where “and” joins values, the source holds several entries; their conditions need not be identical. Identical values can stand only once.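 Each compound was tested at five concentrations against cells in 96-well plates for 48 hours. GI50 marks 50% less growth. TGI denotes the concentration required for complete inhibition of growth.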

How the values were obtained:
Experiment in all cases: NCI anticancer screen, dose series, 48 h
HCT-116 colon = tested on: HCT-116 colon
HT29 colon = tested on: HT29 colon
SK-MEL-5 melanoma = tested on: SK-MEL-5 melanoma
LOX IMVI melanoma = tested on: LOX IMVI melanoma
SF-539 CNS = tested on: SF-539 CNS
786-0 renal = tested on: 786-0 renal
SW-620 colon = tested on: SW-620 colon
HL-60(TB) leukemia = tested on: HL-60(TB) leukemia
RPMI-8226 leukemia = tested on: RPMI-8226 leukemia
NCI-H226 lung = tested on: NCI-H226 lung

| Structure (SMILES) | GI50 (HCT-116 colon) | TGI (HCT-116 colon) [µM] | GI50 (HT29 colon) | TGI (HT29 colon) [µM] | GI50 (SK-MEL-5 melanoma) | TGI (SK-MEL-5 melanoma) [µM] | GI50 (LOX IMVI melanoma) | TGI (LOX IMVI melanoma) [µM] | GI50 (SF-539 CNS) | TGI (SF-539 CNS) [µM] | GI50 (786-0 renal) [µM] | TGI (786-0 renal) [µM] | TGI (SW-620 colon) [µM] | GI50 (HL-60(TB) leukemia) | TGI (HL-60(TB) leukemia) [µM] | GI50 (RPMI-8226 leukemia) | TGI (RPMI-8226 leukemia) [µM] | GI50 (NCI-H226 lung) | TGI (NCI-H226 lung) [µM] | GI50 (SW-620 colon) |
| --- | --- | --- | --- | --- | --- | --- | --- | --- | --- | --- | --- | --- | --- | --- | --- | --- | --- | --- | --- | --- |
| COc1ccc2c(c1)/C(=C\c1c(-c3ccccc3)nc3sccn13)C(=O)N2 | 1.43 µM | 8.19 | 8.17 µM | > 40.7 | 6.06 µM | 21.3 | 6.09 µM | 22.2 | 8.23 µM | 20.5 | 9.01 | 31.2 | > 49.6 | 5.09 µM | > 35.6 | 1.57 µM | 5.51 | 3.44 µM | 33.7 | – |
| C[C@]1(c2nc3c(C(N)=O)cccc3[nH]2)CCCN1 | 48.2 µM and 65.7 µM | > 100 | 61.5 µM and > 100 µM | > 100 | > 76.4 µM and 98.5 µM | > 100 | 66.1 µM and 97.7 µM | > 100 | 79.7 µM and > 100 µM | > 100 | > 100 | > 100 | > 100 | 66.1 µM and > 100 µM | > 100 | > 100 µM and 61.6 µM | > 100 | 50.6 µM and > 74.5 µM | > 100 | 89.4 µM and > 100 µM |
| COc1nc2c(c(=O)n1C)CN(c1ccccc1)C(=O)CN2C | 60.5 µM | > 100 | 60.9 µM | > 100 | 26.9 µM | > 100 | > 100 µM | > 100 | > 100 µM | > 100 | > 100 | > 100 | > 100 | 49.8 µM | > 100 | 72.6 µM | > 100 | 83.8 µM | > 100 | > 100 µM |
| O=C(O)c1nn(-c2ccc(Cl)cc2)c2c1C(=O)c1ccccc1C2=O | – | > 100 | – | > 100 | – | 53.6 | – | > 100 | – | 67.4 | – | > 100 | > 100 | – | > 100 | – | > 100 | – | > 100 | – |
| CCCC[C@H](CCc1ccccc1)N(C(=O)OC)N1CCC[C@H]1COC | – | 28.2 | – | 29.4 | – | 32.9 | – | 34.9 | – | 33 | – | 45.2 | 29.8 | – | > 100 | – | > 100 | – | 36.2 | – |
| CC[C@H](C)[C@H](NC(=O)c1ncccn1)C(=O)N(C)[C@H](C[C@@H](OC(C)=O)c1nc(C(=O)N[C@@H](Cc2ccccc2)C[C@H](C)C(=O)OC)cs1)C(C)C | 0.929 µM | > 25 | 0.893 µM | > 25 | 0.848 µM | 4.77 | 1.46 µM | > 25 | 2.53 µM | 11.9 | 1.72 | > 25 | > 25 | 0.588 µM | 1.26 | 0.793 µM | 3.98 | 5.45 µM | > 25 | 0.896 µM |
| O=C(N/N=C/c1ccc([N+](=O)[O-])cc1)c1ccccc1Nc1ccnc(C(F)(F)F)c1 | 20 µM | 70.2 | 30.7 µM | > 100 | 19.1 µM | 42.3 | 19.8 µM | > 100 | 30.3 µM | > 100 | 32.7 | > 100 | 88.1 | 14.2 µM | 47.3 | 1.61 µM | 14.5 | 15.5 µM | 74.3 | 13.3 µM |
| Cn1cc(-c2ncnc3ccc(-c4cnc(Cl)c(NS(C)(=O)=O)c4)cc23)c2ccccc21 | 2.37 µM | 98.1 | 0.541 µM | > 100 | 1.2 µM | 3.07 | 0.48 µM | 11.8 | 0.656 µM | 4.3 | 1.44 | > 100 | > 100 | 0.538 µM | > 27.8 | 0.419 µM | 4.17 | 1.25 µM | 74.7 | 1.28 µM |
| COc1ccc(-c2oc3ncnc(N)c3c2-c2ccc(NC(=O)Nc3cc(C(F)(F)F)ccc3F)cc2)cc1 | 0.883 µM | 2.84 | 0.844 µM | 3.12 | 1.52 µM | 4.41 | 0.658 µM | 3.21 | 1.55 µM | 5.41 | 1.45 | 5.49 | 3.58 | 2.58 µM | 9.31 | 2.26 µM | 10.1 | 0.601 µM | 8.36 | 0.952 µM |
| O=c1cc(-c2ccccc2)oc2c(O)c(O)ccc12 | 4.01 µM | > 100 | 35.4 µM | > 100 | 12.5 µM | 45.2 | 9.58 µM | > 100 | 14.6 µM | > 100 | 5.99 | 75.1 | > 100 | 11.1 µM | 55.3 | 4.03 µM | 50.9 | 21 µM | > 100 | 6.66 µM |
| N#Cc1c(N)c(C(=O)c2ccc3c(c2)OCCO3)n2c1CCCC2 | 3.55 µM | > 100 | 2.23 µM | > 100 | 3.32 µM | > 100 | 6.92 µM | > 100 | 2.38 µM | 7.63 | 5.31 | > 100 | > 100 | 2.8 µM | > 27 | 3.93 µM | > 100 | > 100 µM | > 100 | 2.07 µM |
| O=C1/C(=C/c2ccc(Cl)cc2)N=C(c2ccccc2)N1c1cc(C(F)(F)F)ccc1Cl | 16.8 µM | 48.3 | 24.1 µM | 73.5 | 16 µM | 29.5 | 16.5 µM | 41.2 | 18.1 µM | 44.3 | 14.4 | 50.6 | > 100 | 16.9 µM | 42.7 | 21.5 µM | 52.1 | 23.6 µM | > 100 | 28.9 µM |
